From ChEMBL document CHEMBL1201862, “PubChem BioAssay data set” (2004)
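Five compound concentrations were applied to cells in 96-well plates for 48 hours; endpoints were derived by simple linear interpolation of the resulting dose-response curve. The concentration for 50% growth inhibition is given as GI50.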 Activity calls are given as the source filed them. Rule as the data show it: active = GI50 up to about 1.1 µM and inactive = higher.

How the values were obtained:
Assay in all cases: NCI-60 cell line screen, 48 h
SNB-19 = system: SNB-19
UACC-257 = system: UACC-257
K562 = system: K562
CAKI-1 = system: CAKI-1
LOX IMVI = system: LOX IMVI
SR = system: SR
SK-MEL-28 = system: SK-MEL-28
SN12C = system: SN12C
MOLT-4 = system: MOLT-4
RXF 393 = system: RXF 393
UO-31 = system: UO-31
SF-268 = system: SF-268
BT-549 = system: BT-549
A498 = system: A498
NCI-H23 = system: NCI-H23
NCI/ADR-RES = system: NCI/ADR-RES
U-251 = system: U-251
Malme-3M = system: Malme-3M
HOP-92 = system: HOP-92
HCT-15 = system: HCT-15

Compound	GI50 (SNB-19)	GI50 (UACC-257)	GI50 (K562)	GI50 (CAKI-1)	GI50 (LOX IMVI)	GI50 (SR)	GI50 (SK-MEL-28)	GI50 (SN12C)	GI50 (MOLT-4)	GI50 (RXF 393)	GI50 (UO-31)	GI50 (SF-268)	GI50 (BT-549)	GI50 (A498)	GI50 (NCI-H23)	GI50 (NCI/ADR-RES)	GI50 (U-251)	GI50 (Malme-3M)	GI50 (HOP-92)	GI50 (HCT-15)
Cc1ccc(S(=O)(=O)n2ccn3c(=O)cc(C)nc23)cc1	> 10 µM (inactive)	> 10 µM (inactive)	> 10 µM (inactive)	> 10 µM (inactive)	> 10 µM (inactive)	> 10 µM (inactive)	> 10 µM (inactive)	> 10 µM (inactive)	> 10 µM (inactive)	> 10 µM (inactive)	> 10 µM (inactive)	> 10 µM (inactive)	> 10 µM (inactive)	> 10 µM (inactive)	> 10 µM (inactive)	> 10 µM (inactive)	> 10 µM (inactive)	> 10 µM (inactive)	> 10 µM (inactive)	> 10 µM
O=C1/C(=C/c2ccncc2)C(n2cccc2)c2c(Br)sc(Br)c21 (stereo unspecified)	15.5 µM (inactive)	2.1 µM (inactive)	1.82 µM (inactive)	3.26 µM (inactive)	1.93 µM (inactive)	2.58 µM (inactive)	2.65 µM (inactive)	4.39 µM (inactive)	1.4 µM (inactive)	1.88 µM (inactive)	2.29 µM (inactive)	2.99 µM (inactive)	3.07 µM (inactive)	22.7 µM (inactive)	2.56 µM (inactive)	14.3 µM (inactive)	2.11 µM (inactive)	3.02 µM (inactive)	2.86 µM (inactive)	2.85 µM
O=C(CN1CCNCCN(CC(=O)N2CCCCC2)CCNCC1)N1CCCCC1	> 100 µM (inactive)	> 100 µM (inactive)	40.3 µM (inactive)	> 100 µM (inactive)	> 100 µM (inactive)	34.4 µM (inactive)	> 100 µM (inactive)	> 100 µM (inactive)	84.7 µM (inactive)	–	> 100 µM (inactive)	–	> 100 µM (inactive)	> 100 µM (inactive)	–	> 100 µM (inactive)	93.1 µM (inactive)	> 100 µM (inactive)	> 100 µM (inactive)	> 100 µM
CC12CCC(C(Br)(Br)C1=O)C2(C)C (stereo unspecified)	9.62 µM (inactive)	2.74 µM (inactive)	< 0.0202 µM (active)	1.8 µM (inactive)	0.611 µM (active)	< 0.01 µM (active)	0.826 µM (active)	0.904 µM (active)	0.091 µM (active)	0.183 µM (active)	0.48 µM (active)	0.0989 µM (active)	0.173 µM (active)	3.68 µM (inactive)	0.123 µM (active)	0.131 µM (active)	< 0.0469 µM (active)	0.056 µM (active)	0.617 µM (active)	0.164 µM
COc1c(O)ccc(C2=Cc3ccc(O)cc3OC2)c1OC	55.3 µM (inactive)	30.3 µM (inactive)	7.08 µM (inactive)	8.81 µM (inactive)	26.1 µM (inactive)	2.15 µM (inactive)	34.3 µM (inactive)	23 µM (inactive)	6.82 µM (inactive)	18.7 µM (inactive)	11.6 µM (inactive)	20.2 µM (inactive)	23.6 µM (inactive)	27.9 µM (inactive)	22.3 µM (inactive)	14.5 µM (inactive)	26 µM (inactive)	18.9 µM (inactive)	24 µM (inactive)	14.1 µM
CCN(CC)C(=S)SNc1ccc(S(N)(=O)=O)cc1	> 83.4 µM (inactive)	> 100 µM (inactive)	> 100 µM (inactive)	36.8 µM (inactive)	38.9 µM (inactive)	33.2 µM (inactive)	33.4 µM (inactive)	68.1 µM (inactive)	0.789 µM (active)	44.4 µM (inactive)	33.2 µM (inactive)	> 75.7 µM (inactive)	67.8 µM (inactive)	> 100 µM (inactive)	> 100 µM (inactive)	> 83.6 µM (inactive)	50.4 µM (inactive)	42.1 µM (inactive)	> 56.2 µM (inactive)	> 77.4 µM
O=C(O)C1CCCN1C(=O)c1cc(Cl)ccn1 (stereo unspecified)	> 100 µM (inactive)	> 100 µM (inactive)	> 100 µM (inactive)	> 100 µM (inactive)	> 100 µM (inactive)	> 100 µM (inactive)	> 100 µM (inactive)	> 100 µM (inactive)	> 100 µM (inactive)	> 100 µM (inactive)	> 100 µM (inactive)	> 100 µM (inactive)	> 100 µM (inactive)	> 100 µM (inactive)	> 100 µM (inactive)	> 100 µM (inactive)	> 100 µM (inactive)	> 100 µM (inactive)	> 100 µM (inactive)	> 100 µM
O=[N+]([O-])c1ccc(Cl)cc1/C=N/C12CC3CC(CC(C3)C1)C2	59.6 µM (inactive)	> 31.6 µM (inactive)	4.98 µM (inactive)	> 100 µM (inactive)	19.6 µM (inactive)	7.03 µM (inactive)	76.9 µM (inactive)	51.6 µM (inactive)	18.5 µM (inactive)	53.1 µM (inactive)	76.7 µM (inactive)	50.2 µM (inactive)	> 55.7 µM (inactive)	> 100 µM (inactive)	50.9 µM (inactive)	30.1 µM (inactive)	33.2 µM (inactive)	43.6 µM (inactive)	79.1 µM (inactive)	25.6 µM
O=C1CSC2=NC3=C(COC/C3=C\c3ccc(Br)cc3)C(c3ccc(Br)cc3)N12 (stereo unspecified)	> 100 µM (inactive)	> 100 µM (inactive)	28.9 µM (inactive)	> 100 µM (inactive)	53.6 µM (inactive)	15.3 µM (inactive)	–	> 100 µM (inactive)	15.2 µM (inactive)	37.8 µM (inactive)	35.3 µM (inactive)	> 100 µM (inactive)	> 100 µM (inactive)	> 100 µM (inactive)	90.6 µM (inactive)	31.8 µM (inactive)	66.5 µM (inactive)	–	> 100 µM (inactive)	52.6 µM
O=C(O)c1ccc2c(c1)CC1(C2)Cc2cc3c(cc2C1=O)CCC3 (stereo unspecified)	> 100 µM (inactive)	> 100 µM (inactive)	> 100 µM (inactive)	–	> 100 µM (inactive)	> 100 µM (inactive)	> 100 µM (inactive)	> 100 µM (inactive)	> 100 µM (inactive)	73.5 µM (inactive)	85.1 µM (inactive)	46.8 µM (inactive)	> 100 µM (inactive)	19.5 µM (inactive)	> 100 µM (inactive)	> 100 µM (inactive)	> 100 µM (inactive)	> 100 µM (inactive)	69 µM (inactive)	79.6 µM
CCN(CC)CCOc1ccc(N2C(=O)c3cc(OC)c(OC)cc3C2=O)cc1	> 100 µM (inactive)	> 100 µM (inactive)	> 100 µM (inactive)	> 100 µM (inactive)	> 100 µM (inactive)	> 100 µM (inactive)	> 100 µM (inactive)	> 100 µM (inactive)	> 100 µM (inactive)	> 100 µM (inactive)	–	> 100 µM (inactive)	> 100 µM (inactive)	> 100 µM (inactive)	> 100 µM (inactive)	> 100 µM (inactive)	> 100 µM (inactive)	> 100 µM (inactive)	> 100 µM (inactive)	> 100 µM
O=C(NC(=O)c1cc(-c2ccccc2)n[nH]1)c1ccccc1	–	> 100 µM (inactive)	77.8 µM (inactive)	> 100 µM (inactive)	> 100 µM (inactive)	24 µM (inactive)	> 100 µM (inactive)	> 100 µM (inactive)	> 100 µM (inactive)	> 100 µM (inactive)	> 100 µM (inactive)	> 100 µM (inactive)	> 100 µM (inactive)	> 100 µM (inactive)	> 100 µM (inactive)	> 100 µM (inactive)	> 100 µM (inactive)	–	> 100 µM (inactive)	> 100 µM
CC(C)(C)OC(=O)NCCC1CN(C(=O)c2ccccc2)c2ccccc21 (stereo unspecified)	32 µM (inactive)	26.9 µM (inactive)	27 µM (inactive)	36 µM (inactive)	–	7.82 µM (inactive)	32.7 µM (inactive)	–	22.1 µM (inactive)	28 µM (inactive)	23.7 µM (inactive)	41.3 µM (inactive)	25.1 µM (inactive)	> 100 µM (inactive)	26.3 µM (inactive)	22.1 µM (inactive)	40 µM (inactive)	28.9 µM (inactive)	26.5 µM (inactive)	29.9 µM
O=C(/C=C/c1ccccc1)Oc1cccc(Br)c1	31.7 µM (inactive)	> 100 µM (inactive)	–	48.6 µM (inactive)	29.7 µM (inactive)	23.4 µM (inactive)	> 100 µM (inactive)	> 100 µM (inactive)	11.6 µM (inactive)	56.8 µM (inactive)	52.8 µM (inactive)	24.3 µM (inactive)	> 100 µM (inactive)	61.8 µM (inactive)	> 100 µM (inactive)	60.1 µM (inactive)	29.5 µM (inactive)	–	91 µM (inactive)	18.2 µM
CC(C)n1c2c(c3ccccc3c1=O)C(=O)c1ccccc1-2	> 100 µM (inactive)	> 100 µM (inactive)	> 100 µM (inactive)	> 100 µM (inactive)	> 100 µM (inactive)	> 100 µM (inactive)	> 100 µM (inactive)	> 100 µM (inactive)	> 100 µM (inactive)	–	> 100 µM (inactive)	> 100 µM (inactive)	> 100 µM (inactive)	> 100 µM (inactive)	> 100 µM (inactive)	> 100 µM (inactive)	> 100 µM (inactive)	> 100 µM (inactive)	> 100 µM (inactive)	> 100 µM
